≈ marks a conversion by molar mass, not a printed value.
Assays:
[1] = tested on: Candida albicans (5 isolates); assay: Antibiotic inhibition assay using disc method, C. albicans isolates; assay type: cell-based
Benjaminiella poitrasii = assay: microbe, parasite or virus in culture; assay type: cell-based; conditions: B. poitrassi, disc method; for MIC: 28° C.
Yarrowia lipolytica = assay: Antibiotic inhibition assay using disc method, Y. lipolytica; assay type: cell-based; conditions: for MIC: 28° C.
[2] = tested on: clinical isolate of C. albicans; conditions: microtitre dilution broth assay; cited from earlier work
[3] = tested on: Candida albicans (5 isolates), Benjaminiella poitrasii and Yarrowia lipolytica; assay: Antibiotic inhibition assay using disc method, all fungi tested together; assay type: cell-based; conditions: for antifungal activity (in words): Candida albicans (five isolates), Benjaminiella poitrasii and Yarrowia lipolytica, compared with cycloheximide; for MIC: all five C. albicans isolates, B. poitrassi and Y. lipolytica
[4] = C. albicans, Isolate no. 1, disc method
[5] = C. albicans, Isolate no. 2, disc method
[6] = C. albicans, Isolate no. 3, disc method
[7] = C. albicans, Isolate no. 4, disc method
[8] = C. albicans, Isolate no. 5, disc method
[9] = C. albicans, Isolate no. 1, disc method, 28° C., 24 hours
[10] = C. albicans, Isolate no. 2, disc method, 28° C., 24 hours
[11] = C. albicans, Isolate no. 3, disc method, 28° C., 24 hours
[12] = C. albicans, Isolate no. 4, disc method, 28° C., 24 hours
[13] = C. albicans, Isolate no. 5, disc method, 28° C., 24 hours

Compound	Inhibition Zone [1, 4] [cm]	Inhibition Zone [1, 5] [cm]	Inhibition Zone [1, 6] [cm]	Inhibition Zone [1, 7] [cm]	Inhibition Zone [1, 8] [cm]	Inhibition Zone (Benjaminiella poitrasii) [cm]	MIC (Benjaminiella poitrasii; 24 hours) [µM]	Inhibition Zone (Yarrowia lipolytica) [cm]	MIC (Yarrowia lipolytica; 24 hours) [µM]	MIC [1, 9] [µM]	MIC [1, 10] [µM]	MIC [1, 11] [µM]	MIC [1, 12] [µM]	MIC [1, 13] [µM]	antifungal activity (in words) [3]	MIC [3] [µM]	other results
C[C@@H]1C[C@@H]([C@H](O)CC2CC(=O)NC(=O)C2)C(=O)[C@@H](C)C1 [Cycloheximide, reference compound]	1.0	0.9	0.9	1.0	0.8	1.45	0.0712 (≈ 0.02 µg/mL)	0.9	0.1068 (≈ 0.03 µg/mL)								MIC ([1]; Candida albicans, 24 h, C. albicans, Isolate no. 1, disc method, 28° C.): 0.356 µM (≈ 0.1 µg/mL); MIC ([1]; Candida albicans, 24 h, C. albicans, Isolate no. 2, disc method, 28° C.): 0.539 µM (≈ 0.152 µg/mL); MIC ([1]; Candida albicans, 24 h, C. albicans, Isolate no. 3, disc method, 28° C.): 0.267 µM (≈ 0.0751 µg/mL); MIC ([1]; Candida albicans, 24 h, C. albicans, Isolate no. 4, disc method, 28° C.): 0.534 µM (≈ 0.15 µg/mL); MIC ([1]; Candida albicans, 24 h, C. albicans, Isolate no. 5, disc method, 28° C.): 0.534 µM (≈ 0.15 µg/mL); MIC ([1]; Candida albicans, isolates of C. albicans, range over isolates): 0.25 to 0.5 µM (≈ 0.0703 to 0.141 µg/mL); MIC (Benjaminiella poitrasii; Benjaminiella poitrasii, 24 h): 0.071 µM (≈ 0.02 µg/mL); MIC (Yarrowia lipolytica; Yarrowia lipolytica, 24 h): 0.106 µM (≈ 0.0298 µg/mL); MIC [2]: greater than 900 nM
CC(CCC(=O)NCCNCCNC(=O)CCC(C)C1CCC2C3C(O)CC4CC(O)CCC4(C)C3CC(O)C12C)C1CCC2C3C(O)CC4CC(O)CCC4(C)C3CC(O)C12C (stereo not drawn) [Compound (1), N^1,N^3-Diethylenetriaminebis [cholic acid amide]]	0.8	0.8	0.8	0.8	0.8	0.7	0.01132 (≈ 0.01 µg/mL)	0.9	0.01132 (≈ 0.01 µg/mL)	0.01132 (≈ 0.01 µg/mL)	0.01132 (≈ 0.01 µg/mL)	0.01132 (≈ 0.01 µg/mL)	0.01132 (≈ 0.01 µg/mL)	0.01132 (≈ 0.01 µg/mL)	very good antifungal activity	0.01132 (≈ 0.01 µg/mL)	minimum inhibitory concentration (MIC) ([3]; summary in description, fungi not specified): about 11.30 nM
N^1,N^3-Diethylenetriaminebis [Compound (2), N^1,N^3-Diethylenetriaminebis [deoxycholic acid amide]]	0.9	0.7	1.0	0.8	0.9	0.6	0.01763	0.8	0.0235	0.01175	0.01175	0.01175	0.01175	0.01763	moderate antifungal activity	0.01 to 0.025	

Reference: US7235678B2 (priority 2004, dated 2007)
